Experimental data published in PMC10455244, “Alpha-Mangostin: A Potent Inhibitor of TRPV3 and Pro-Inflammatory Cytokine Secretion in Keratinocytes” (International Journal of Molecular Sciences, 2023).

Target: T1, TRPV3 (G573C) (Homo sapiens, UniProt Q8NET8, G573C)
T1 construct: host or cells: HEK 293T (transient transfection, pEGFP-N1 co-transfected as a marker)
T1 sequence (Q8NET8 1-790 G573C): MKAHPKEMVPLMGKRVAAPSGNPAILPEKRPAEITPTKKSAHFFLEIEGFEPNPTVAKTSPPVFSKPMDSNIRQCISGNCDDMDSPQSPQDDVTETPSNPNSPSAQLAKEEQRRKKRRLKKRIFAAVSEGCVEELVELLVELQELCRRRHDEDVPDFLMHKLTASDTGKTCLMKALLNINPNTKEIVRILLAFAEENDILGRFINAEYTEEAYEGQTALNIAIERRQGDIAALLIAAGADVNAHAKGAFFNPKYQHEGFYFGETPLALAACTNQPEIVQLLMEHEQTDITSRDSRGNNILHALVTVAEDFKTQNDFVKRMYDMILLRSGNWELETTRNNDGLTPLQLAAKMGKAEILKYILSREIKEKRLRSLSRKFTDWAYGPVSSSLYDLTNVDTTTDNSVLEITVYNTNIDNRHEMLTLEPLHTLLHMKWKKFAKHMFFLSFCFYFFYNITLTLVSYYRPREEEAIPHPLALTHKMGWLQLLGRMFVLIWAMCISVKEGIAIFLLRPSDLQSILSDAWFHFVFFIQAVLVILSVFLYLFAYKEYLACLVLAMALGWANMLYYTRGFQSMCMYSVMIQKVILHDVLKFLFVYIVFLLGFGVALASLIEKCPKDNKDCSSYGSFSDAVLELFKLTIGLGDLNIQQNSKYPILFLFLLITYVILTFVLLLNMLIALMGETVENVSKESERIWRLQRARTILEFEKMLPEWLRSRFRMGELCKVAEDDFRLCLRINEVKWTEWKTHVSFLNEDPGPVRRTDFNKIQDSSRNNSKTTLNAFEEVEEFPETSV
Assay: Fura-2 calcium imaging, spontaneous Ca2+ increase in TRPV3 (G573C)-expressing HEK 293T cells
Format: cell-based
Details: 1 µM
Excerpt: Figure 4 Alpha-mangostin inhibited the activity of hyperactive TRPV3 mutant channels and rescued mutation-induced cell death. (A) Alpha-mangostin inhibited the channel current in representative TRPV3 (G573S)- and TRPV3 (G573C)-expressing HEK 293T cells. […] Currents were normalized to the response at −100 mV before adding alpha-mangostin. (C) Alpha-mangostin inhibited TRPV3-mediated intracellular calcium increase in TRPV3 (G573S)-expressing HEK 293T cells. […] The bar graph on the right summarizes the change in the intracellular calcium rise inhibited by alpha-mangostin. […]
Subsequently, the effects of alpha-mangostin on the activities of the mutated channels were further evaluated using intracellular calcium measurements.
Fura-2 AM (Thermo Fisher Scientific) was utilized as a fluorescent indicator to measure calcium signal, as described previously. […] To measure the cytosolic Ca^2+ level, a sequential excitation of Fura-2 is performed at 340 nm and 380 nm; then, the emission signals resulting from each excitation wavelength are measured and the ratio of these signals is calculated. […] Samples were excited using a wavelength of 380 nm for 20 ms, followed by 340 nm for 100 ms, and fluorescence at 510 nm was recorded. Recorded data were then analyzed using NIS-Element AR Version 5.00.00 (Nikon Instruments, Melville, NY, USA). […]

COc1c(O)cc2oc3cc(O)c(CC=C(C)C)c(O)c3c(=O)c2c1CC=C(C)C [Alpha-mangostin]
Effect on spontaneous intracellular calcium increase: potently attenuated
